# Assay results reported in US20090286884A1, “Hops Beta-Acid Anti-Diabetic Composition” (priority 2004, published 2009).
# System: normal human muscle myoblasts (HSMM)
# Test: 3H-deoxyglucose uptake into skeletal muscle cells
# Assay type: cell-based
# Conditions: after 24 hrs incubation in the presence of various hops extracts
# Experimental: All skeletal muscle cell strains used are skeletal muscle myoblast cells (purchased from Clonetics) with negative for HIV-I, hepatitis-B & C, mycoplasma, bacteria, yeast and fungi. This Skeletal Muscle Myoblast Cell System contains normal human muscle myoblasts (HSMM). The cell and media System can quickly generate HSMM cultures for the study of cellular development and differentiation, insulin uptake or resistance, or tissue repair. The Skeletal muscle cells were cultured on Cytostar 96-well cultured plate. Cells were labeled with 3H-deoxyglucose (50 μCi/ml, 4 μM) in the presence of 8 mM glucose. Radioactivity was counted on a Microbeta scintillation counter. In beta-acid treated cells (mixture of 65:25:10 of co-Lupulone: lupulone: ad-lupulone, Beta Tec, Washington, D.C.), kinetics of labeled deoxyglucose uptake was directly measured without washing. In order to avoid color quenching of quercetin treated cells, cells were washed with Hanks buffer and then the radioactivity was measured at end-point (18 hr). Error bars show SD (n=3).
smiles,measurement,value
COc1cc(O)c(CC=C(C)C)c(O)c1C(=O)/C=C/c1ccc(O)cc1 [xanthohumol],"glucose uptake into muscle skeletal cells, enhancing effect",no enhancing effect
